Experimental data from patent publication US7595334B2, “Broadspectrum 2-(substituted-amino)-benzoxazole sulfonamide HIV protease inhibitors” (Tibotec Pharmaceuticals Ltd., priority 2001, dated 2009).

Columns and labels:
mock-infected MT4 cells = test: in vitro
Protocol: (§1) HIV- or mock-infected MT4 cells were incubated for five days in the presence of various concentrations of the inhibitor. […] Cell viability is measured by measuring the concentration of MTT, a yellow, water soluble tetrazolium dye that is converted to a purple, water insoluble formazan in the mitochondria of living cells only. Upon solubilization of the resulting formazan crystals with isopropanol, the absorbance of the solution is monitored at 540 nm. The values correlate directly to the number of living cells remaining in the culture at the completion of the five day incubation. The inhibitory activity of the compound was monitored on the virus-infected cells and was expressed as EC50 and EC90. These values represent the amount of the compound required to protect 50% and 90%, respectively, of the cells from the cytopathogenic effect of the virus. The toxicity of the compound was measured on the mock-infected cells and was expressed as CC50, which represents the concentration of compound required to inhibit the growth of the cells by 50%. The selectivity index (SI) (ratio CC50/EC50) is an indication of the selectivity of the anti-HIV activity of the inhibitor. Wherever results are reported as e.g. pEC50 or pCC50 values, the result is expressed as the negative logarithm of the result expressed as EC50 or CC50 respectively.
(§2) As a measure of the broad spectrum activity of the present compounds, the fold resistance (FR), defined as FR=EC50(mutant strain)/EC50(HIV-1 strain LAI), was determined.

[1] = tested on: HIV strain A (clinically isolated, protease mutations); format: cell-based; details: FR=EC50(mutant strain A)/EC50(HIV-1 strain LAI)
Protocol: as §1, §2

[2] = tested on: HIV strain B (clinically isolated, protease mutations); format: cell-based; details: FR=EC50(mutant strain B)/EC50(HIV-1 strain LAI)
Protocol: as §1, §2

[3] = tested on: HIV strain C (clinically isolated, protease mutations); format: cell-based; details: FR=EC50(mutant strain C)/EC50(HIV-1 strain LAI)
Protocol: as §1, §2

[4] = tested on: HIV strain D (clinically isolated, protease mutations); format: cell-based; details: FR=EC50(mutant strain D)/EC50(HIV-1 strain LAI)
Protocol: as §1, §2

[5] = tested on: HIV strain E (clinically isolated, protease mutations); format: cell-based; details: FR=EC50(mutant strain E)/EC50(HIV-1 strain LAI)
Protocol: as §1, §2

[6] = tested on: HIV strain F (clinically isolated, protease mutations); format: cell-based; details: FR=EC50(mutant strain F)/EC50(HIV-1 strain LAI)
Protocol: as §1, §2

Row | Compound | Tox (pCC50) (mock-infected MT4 cells) | A (FR) fold resistance [1] | B (FR) fold resistance [2] | C (FR) fold resistance [3] | D (FR) fold resistance [4] | E (FR) fold resistance [5] | F (FR) fold resistance [6]
1 | CC(C)CN(C[C@@H](O)[C@H](Cc1ccccc1)NC(=O)OCc1cncs1)S(=O)(=O)c1ccc2nc(N(C)C(=O)c3ccnc(Cl)c3)oc2c1 [Compound 29] | <4 | 8.1 | 1.4 | 0.79 | 4.9 | 0.87 | 39
2 | CC(C)CN(C[C@@H](O)[C@H](Cc1ccccc1)NC(=O)OCc1cncs1)S(=O)(=O)c1ccc2nc(NC(=O)CN(C)C)oc2c1 [Compound 19] | <4 | 3.0 | 0.81 | 0.91 | 2.2 | – | 17
3 | CC(C)CN(C[C@@H](O)[C@H](Cc1ccccc1)NC(=O)OCc1cncs1)S(=O)(=O)c1ccc2nc(N(C)C(=O)c3ccccn3)oc2c1 [Compound 26] | 4.14 | 9.3 | 2.45 | 3.4 | 15 | 11 | 59
4 | CC(C)CN(C[C@@H](O)[C@H](Cc1ccccc1)NC(=O)OCc1cncs1)S(=O)(=O)c1ccc2nc(N(C)C(=O)c3ccncc3)oc2c1 [Compound 31] | <4 | 9.5 | 1.3 | 1.25 | 7.6 | – | 33
5 | CC(C)CN(C[C@@H](O)[C@H](Cc1ccccc1)NC(=O)OCc1cncs1)S(=O)(=O)c1ccc2nc(NC(=O)c3ccco3)oc2c1 [Compound 14] | 5.03 | 5.2 | 3.8 | 3.1 | 3.7 | 3.1 | 19
6 | CC(=O)Nc1nc2ccc(S(=O)(=O)N(CC(C)C)C[C@@H](O)[C@H](Cc3ccccc3)NC(=O)OCc3cncs3)cc2o1 [Compound 11] | <4 | 42 | 2.1 | 2.5 | 10 | 4.8 | 74
7 | COC(=O)Nc1nc2ccc(S(=O)(=O)N(CC(C)C)C[C@@H](O)[C@H](Cc3ccccc3)NC(=O)OCc3cncs3)cc2o1 [Compound 9] | <4 | 3.5 | 1.2 | 1.2 | 2.7 | 3.6 | 14.5
8 | CC(C)CN(C[C@@H](O)[C@H](Cc1ccccc1)NC(=O)OCc1cncs1)S(=O)(=O)c1ccc2nc(N(C)C(=O)C3CCC(=O)N3)oc2c1 (some centres unmarked) [Compound 30] | <4 | – | – | – | – | – | –
9 | CC(C)CN(C[C@@H](O)[C@H](Cc1ccccc1)NC(=O)OCc1cncs1)S(=O)(=O)c1ccc2nc(NC(=O)C3CCCN3C)oc2c1 (some centres unmarked) [Compound 34] | 4.25 | 7.2 | 1.4 | 1.7 | 5.8 | 2.3 | 25
10 | CC(C)CN(C[C@@H](O)[C@H](Cc1ccccc1)NC(=O)O[C@H]1CO[C@H]2OCC[C@H]21)S(=O)(=O)c1ccc2nc(NCCN(C)C)oc2c1 [Compound 2] | <4 | 1.1 | 0.49 | 0.59 | 0.32 | 0.36 | 2.7
11 | CC(C)CN(C[C@@H](O)[C@H](Cc1ccccc1)NC(=O)OCc1cncs1)S(=O)(=O)c1ccc2nc(NC(=O)c3cccnc3)oc2c1 [Compound 18] | 4.24 | 2.6 | 0.85 | 1.5 | 3.0 | 2.6 | 13
12 | CC(C)CN(C[C@@H](O)[C@H](Cc1ccccc1)NC(=O)OCc1cncs1)S(=O)(=O)c1ccc2nc(NC(=O)CN(C)CCN3CCCC3)oc2c1 [Compound 24] | <4 | 1.9 | 0.53 | 1.3 | 1.6 | 1.4 | 6.8
13 | CC(C)CN(C[C@@H](O)[C@H](Cc1ccccc1)NC(=O)OCc1cncs1)S(=O)(=O)c1ccc2nc(N(C)C(=O)C3CCN(C)CC3)oc2c1 [Compound 28] | <4 | 4.4 | 0.89 | 0.51 | 2.9 | 1.9 | 23
14 | CC(C)CN(C[C@@H](O)[C@H](Cc1ccccc1)NC(=O)OCc1cncs1)S(=O)(=O)c1ccc2nc(NC(=O)[C@H]3CCCN3C)oc2c1 [Compound 35] | 4.26 | 13 | 2.3 | 1.1 | 3.5 | – | 48
15 | CC(C)CN(C[C@@H](O)[C@H](Cc1ccccc1)NC(=O)OCc1cncs1)S(=O)(=O)c1ccc2nc(NC(=O)CN3CCN(C)CC3)oc2c1 [Compound 25] | 4.31 | 3.9 | 1.3 | 3.0 | 3.9 | 3.9 | 18
16 | CC(C)CN(C[C@@H](O)[C@H](Cc1ccccc1)NC(=O)OCc1cncs1)S(=O)(=O)c1ccc2nc(NC(=O)C3CCN(C)CC3)oc2c1 [Compound 15] | <4 | 2.3 | 0.81 | 1.1 | 1.7 | 1.5 | 7.8
17 | CC(C)CN(C[C@@H](O)[C@H](Cc1ccccc1)NC(=O)OCc1cncs1)S(=O)(=O)c1ccc2nc(N(C)C(=O)c3cccnc3)oc2c1 [Compound 32] | <4 | 8.3 | 1.7 | 1.1 | 8.1 | – | 42
18 | CCOC(=O)Nc1nc2ccc(S(=O)(=O)N(CC(C)C)C[C@@H](O)[C@H](Cc3ccccc3)NC(=O)OCc3cncs3)cc2o1 [Compound 12] | <4 | 8.5 | 1.4 | 2.5 | 4.8 | 2.5 | 15
19 | CC(C)CN(C[C@@H](O)[C@H](Cc1ccccc1)NC(=O)OCc1cncs1)S(=O)(=O)c1ccc2nc(NC(=O)C3CCC(=O)N3)oc2c1 (some centres unmarked) [Compound 13] | <4 | 2.3 | 0.75 | 0.64 | 0.91 | 0.91 | 5.2
20 | CC(C)CN(C[C@@H](O)[C@H](Cc1ccccc1)NC(=O)O[C@H]1CO[C@H]2OCC[C@H]21)S(=O)(=O)c1ccc2nc(N(C)CCN3CCCC3)oc2c1 [Compound 8] | <4 | 30 | 5.8 | 1.7 | 5.8 | – | 58
21 | CC(C)CN(C[C@@H](O)[C@H](Cc1ccccc1)NC(=O)OCc1cncs1)S(=O)(=O)c1ccc2nc(NC(=O)c3ccccn3)oc2c1 [Compound 16] | 4.25 | 3.5 | 0.72 | 0.69 | 3.3 | 1.1 | 17
22 | CC(C)CN(C[C@@H](O)[C@H](Cc1ccccc1)NC(=O)OCc1cncs1)S(=O)(=O)c1ccc2nc(N(C)C(=O)C3CCCN(C)C3)oc2c1 (some centres unmarked) [Compound 27] | <4 | 4.4 | 1.00 | 0.68 | 2.9 | 0.85 | 24
